According to paper PMC4393083, “Antiviral Activity and Possible Mechanism of Action of Constituents Identified in Paeonia lactiflora Root toward Human Rhinoviruses” (PLoS ONE, 2015):
Where two headings read alike, the source gives them in different places.

What was measured:
[1] = tested on: IFN-β; test: IFN-β mRNA expression, qRT-PCR in MRC5; format: cell-based, human; settings: MRC5, 2 days after HRV-2 or HRV-4 infection; 100 μg/mL PA, 20 μg/mL PGG
Method: (§1) To evaluate the level of gene expression, real-time qRT-PCR with SYBR Green dye was carried out. HRV-2 or HRV-4 infected and noninfected cultures of MRC5 monolayers grown in 25 cm^2 cell culture flasks (Corning, NY) were treated with 100 μg/mL PA or 20 μg/mL PGG. After incubation at 37°C and 5% CO2 for 2 days, total RNA was extracted from the culture cells using the RNeasy Plus Mini Kit (Qiagen, Hilden, Germany) according to the manufacturer’s instructions. Contaminated genomic DNA was removed using RQ1 RNase-free DNase (Promega, Madison, WI). Complementary DNA (cDNA) was synthesized using 1 μg total RNA through a reverse transcription reaction using the SuperScript First-Strand Synthesis Kit (Invitrogen, Carlsbad, CA). […] The PCR conditions were as follows: 50°C for 2 min, 95°C for 10 min, and then 50 cycles of 95°C for 15 s and either 60°C [β2-microglobulin (B2M), interleukin (IL)-6, IL-8, LDLR, ICAM-1, HRV-2, and HRV-4] or 58°C (B2M and IL-1β) or 55°C [B2M, Toll-like receptor 3 (TLR3), tumor necrosis factor (TNF), and interferon beta (IFNβ)] for 30 s. mRNA expression level of target gene was normalized to mRNA expression level for the housekeeping gene B2M and analyzed by the 2^–ΔΔCT method using StepOne Software v2.1 and DataAssist Software (Applied Biosystems). […]

[2] = tested on: HRV-4; test: Time-of-addition assay, HRV-4 in MRC5 cells; format: cell-based; settings: Human rhinovirus sp.
Method: The time-of-addition effects of all compounds on HRV-4 were examined according to the method of Choi et al.. In brief, monolayers of MRC5 cells were seeded onto a 96-well culture plate as stated previously. After washing with PBS, 100 μg/mL PA, 20 μg/mL PGG, and 100 μg/mL ribavirin were separately added onto the cells at either before (–1 h), during (0 h), or after (1, 2, 3, 4, 6, 8, 12, 16, 20, and 24 h) HRV-4 infection at 37°C. After 2 days, MTT test and antiviral activity were carried out as stated previously.

[3] = tested on: LDLR; test: LDLR mRNA expression, qRT-PCR in MRC5; format: cell-based, human; settings: MRC5, 2 days after HRV-2 or HRV-4 infection; 100 μg/mL PA, 20 μg/mL PGG
Method: as §1, with “WI).” for “WI). Complementary DNA (cDNA) was synthesized using 1 μg total RNA through a reverse transcription reaction using the SuperScript First-Strand Synthesis Kit (Invitrogen, Carlsbad, CA).”
(§2) The expressions of ICAM-1 and LDLR were examined using real-time qRT-PCR and Western blot. […] The concentrations of ICAM-1 in the test samples were determined from OD values using standard curve of each assay.

[4] = tested on: IL-1β; test: IL-1β mRNA expression, qRT-PCR in MRC5; format: cell-based, human; settings: MRC5, 2 days after HRV-2 or HRV-4 infection; 100 μg/mL PA, 20 μg/mL PGG
Method: as §1

[5] = tested on: TLR3; test: TLR3 mRNA expression, qRT-PCR in MRC5; format: cell-based, human; settings: MRC5, 2 days after infection; 100 μg/mL PA, 20 μg/mL PGG
Method: as §1

[6] = tested on: LDLR; test: Western blot of LDLR in MRC5 cells; format: cell-based, human; settings: MRC5, 2 days, regardless of HRV-2 infection, similar with HRV-4, 100 μg/mL PA, 20 μg/mL PGG
Method: Cell lysates from infected and noninfected MRC5 cultures 2 days after incubation with or without test compounds were obtained in RIPA buffer and 1% mammalian cell protease inhibitor cocktail according to the manufacturer’s instructions. Working dilutions of primary antibodies were dilulted 500, 2000, and 1000 times for anti-ICAM-1, anti-LDLR, and anti-actin antibodies, respectively. Working dilutions of secondary antibody was 1000, 1000, and 800 for anti-ICAM-1, anti-LDLR, and anti-actin, respectively. Ten micrograms of cell lysates from different treatments were mixed with an equal volume of 5× Laemmli sample buffer, boiled in 10 min, and resolved by electrophoresis in 11% sodium dodecyl sulfate-polyacrylamide gels (SDS-PAGE). […] Differences in protein expressions were quantified using a Molecular Imager Gel Doc XR system (Bio-Rad, Hercules, CA) and normalized to actin expression on the same membrane.
The expressions of ICAM-1 and LDLR were examined using real-time qRT-PCR and Western blot. Furthermore, concentrations of soluble ICAM-1 (sICAM-1) in cell-free culture supernatants 2 days after treatment were measured using a sICAM-1 ELISA Kit (Pierce Biotechnology, Rockford, IL) according to the manufacturer’s instructions. […] The concentrations of ICAM-1 in the test samples were determined from OD values using standard curve of each assay.

[7] = tested on: HRV-2; test: Real-time qRT-PCR of HRV-2 RNA replication in MRC5 cells; format: cell-based, human rhinovirus; settings: MRC5, 2 days after infection; 100 μg/mL PA, 20 μg/mL PGG; vs untreated cultures
Method: as §1

[8] = tested on: IL-6; test: IL-6 mRNA expression, qRT-PCR in MRC5; format: cell-based, human; settings: MRC5, 2 days after HRV-2 or HRV-4 infection; 100 μg/mL PA, 20 μg/mL PGG
Method: as §1

[9] = tested on: ICAM-1; test: ICAM-1 mRNA expression, qRT-PCR in MRC5; format: cell-based, human; settings: MRC5, 2 days after HRV-2 or HRV-4 infection; 100 μg/mL PA, 20 μg/mL PGG
Method: as §1, with “WI).” for “WI). Complementary DNA (cDNA) was synthesized using 1 μg total RNA through a reverse transcription reaction using the SuperScript First-Strand Synthesis Kit (Invitrogen, Carlsbad, CA).”
as §2

[10] = tested on: HRV-4; test: Real-time qRT-PCR of HRV-4 RNA replication in MRC5 cells; format: cell-based, human rhinovirus; settings: MRC5, 2 days after infection; 100 μg/mL PA, 20 μg/mL PGG; vs untreated cultures
Method: as §1

[11] = tested on: TNF; test: TNF mRNA expression, qRT-PCR in MRC5; format: cell-based, human; settings: MRC5, 2 days; 100 μg/mL PA, 20 μg/mL PGG; vs untreated cells
Method: as §1

[12] = HRV4, 0 h, 100 μg/mL PA, 20 μg/mL PGG, 100 μg/mL ribavirin, read-out: inhibition of HRV-4 infection, added at virus inoculation (0 h)
[13] = HRV4, read-out: inhibition of HRV-4 infection, added prior (–1 h) or post (1–24 h) infection, 100 μg/mL PA, 20 μg/mL PGG

SMILES	effect on HRV-induced IFN-β mRNA expression [1]	inhibition at 100 µg/mL [2, 12] [%]	inhibition at 100 µg/mL [2, 13] [%]	effect on LDLR mRNA expression [3]	effect on HRV-induced IL-1β mRNA expression [4]	TLR3 mRNA expression vs cultures without treatment [5]	effect on LDLR protein expression [6]	reduction of HRV-2 RNA replication level [7] [fold]	effect on HRV-induced IL-6 mRNA expression [8]	effect on HRV-induced ICAM-1 mRNA expression [9]	reduction of HRV-4 RNA replication level [10] [fold]	effect on TNF mRNA expression [11]	inhibition at 20 µg/mL [2, 12] [%]	inhibition at 20 µg/mL [2, 13] [%]
COc1ccc(C(C)=O)c(O)c1 [PA, paeonol]	meaningfully inhibited	57.2	≤ 40	decreased	disappeared or was significantly reduced	significantly lower	no effect	30.1	significantly reduced	reduced	16.3	did not remarkably reduce		
O=C(OC[C@H]1O[C@@H](OC(=O)c2cc(O)c(O)c(O)c2)[C@H](OC(=O)c2cc(O)c(O)c(O)c2)[C@@H](OC(=O)c2cc(O)c(O)c(O)c2)[C@@H]1OC(=O)c1cc(O)c(O)c(O)c1)c1cc(O)c(O)c(O)c1 [PGG, 1,2,3,4,6-penta-O-galloyl-β-D-glucopyranose]	meaningfully inhibited			decreased	disappeared or was significantly reduced	significantly lower	sharp decline	14.3	significantly reduced	reduced	15.1	did not remarkably reduce	54.5	≤ 40
